# Test results taken from patent publication US11413278B2, “Compounds and methods for promoting stress resistance” (priority 2015, dated 2022).
# “Also recorded” adds a separate entry of the source. Where two headings read alike, the source gives them in different places.
# What was measured:
# human PARP1 = biological target: T1, human PARP1 (Homo sapiens, UniProt P09874); assay: PARP inhibitor assay (HT Fluorescent Homogeneous PARP Inhibition Assay Kit); assay type: biochemical; settings: 10 μM, in vitro
# T1 construct: purchased Trevigen
# Protocol: (§1) The assay was performed with the HT Fluorescent Homogeneous PARP Inhibition Assay Kit (Trevigen), following manufacturer's instructions. Briefly, nicotinamide adenine dinucleotide, human PARP1 and activated-DNA solution was added onto a 96-well plate. 54 repurchased small molecules, at 10 μM final concentration, were introduced onto the 96-well assay plate and incubated in a humid chamber at room temperature for 30 min in dark. Cycling mixture, with resazurin and cycling enzyme diaphorase, was then added and incubated further for 1 hr in dark. Reaction was terminated by adding the stopping buffer.
# as §1, with “(Trevegen),” for “(Trevigen),”, “stopped” for “terminated”
# WI-38 cells [1] = settings: for Assay 1: H2O2-resistant: YES/NO, if NO, possibly due to repeated freezing/thawing of stocks; for EC50: read-out: Est. ED50, dose response 0.6-20 μM, H2O2-resistance
# [2] = test system: human dermal fibroblast (HDF) primary cells; assay: H2O2-resistance in primary human dermal fibroblasts; assay type: cell-based; settings: YES/NO
# WI-38 cells [3] = assay: CdCl2 (cadmium) resistance assay; assay type: cell-based, human; settings: YES/NO; for Assay 2: Cadmium-resistant: * indicates partial
# Protocol: (§2) For many stress conditions tested previously, one significant correlation to longevity is the cellular resistance to H2O2 or CdCl2. Applicants then tested these small molecules, at five different final concentrations (0.25 μM to 20 μM), for cadmium and MMS resistance in WI-38 cells.
# (§3) The setups on 384-well plates and incubation times were the same as for H2O2 until the time of incubation with the stressors, which was 12 hours for both cadmium and MMS assays. Applicants tested several conditions, including conditions used to assay fibroblasts from long-lived animals (Salmon et al., 2005). These conditions produced better results with the positive controls (KEAP1 and AKT1 siRNAs) in the MMS assay. Thus, for MMS, the cells were shifted from growth media—OptiMEM+10% FBS, to DMEM (Gibco)+2% BSA (no serum) just before adding small molecules, which occurred 24 hours before MMS addition.
# (§4) Isolated small molecules were tested for MMS and cadmium resistance twice in two independent assays. Each small molecule was analyzed at five different concentrations (0.25 μM to 20 μM final concentration), with technical triplicates for each dose. Data were analyzed using a global variance t-test.
# C. elegans = C. elegans lifespan assays (liquid and plate); assay type: in vivo, Caenorhabditis elegans; settings: for ILS at 66 µM: Caenorhabditis elegans
# WI-38 cells [4] = assay: MMS resistance assay; assay type: cell-based, human; settings: YES/NO; for Assay 3: MMS-resistant: * indicates partial; for Assay 5: Triple resistant: H2O2, cadmium and MMS
# Protocol: as §2, §3, §4
# NRF2 = assay: qPCR analysis of NRF2-regulated genes; assay type: cell-based, human; settings: Homo sapiens, 24 h, Assay 12(o), at 10 uM, qPCR
# Protocol: (§5) For qPCR analysis, WI-38 cells were treated with small molecules (at 10 μM) (biological quadruplicates) for 24 hrs and processed for RNA isolation and reverse transcription (RT) with the Cells-to-Ct Kit (Life Technologies), following manufacturer's instructions. RT products were diluted with H2O and used for qPCR analysis on an ABI 7300 system (Life Technologies) (technical triplicates). Relative expression levels of target genes were normalized to the genes B2M, PPIA and GAPDH. To knock down the expression of FOXO3 or NRF2, WI-38 cells were transfected, using the RNAiMAX reagents (Life Technologies), with siRNA oligos (at 10 nM final concentration, 10 ml culture medium) for FOXO3 (Life Technologies) or NRF2 (Integrated DNA Technologies) on 10-cm petri dishes for 36 hrs, and then detached and aliquoted onto 96-well (for qPCR analysis) or 384-well plates (for H2O2-stress treatment). ˜24 hrs later, small molecules were introduced and incubated with cells for 24 hrs. Cells were then either processed with the Cells-to-Ct Kit to prepare RT products for qPCR analysis or subjected to H2O2 (700 μM) for 3 hrs and assayed for viability. The knockdown efficiency of FOXO3 or NRF2 was checked at 36 hrs post-transfection and at the end as well.
# (§6) For qPCR analysis, WI-38 cells were treated with small molecules (at 10 μM) (biological quadruplicate) for 24 hrs and processed for RNA isolation and reverse transcription (RT) with the Cells-to-Ct Kit (Life Technologies), following manufacturer's instructions. RT products were diluted with H2O and used for qPCR analysis on a LightCycler 480 system (Roche) (technical triplicates). Relative expression levels of target genes were normalized to the genes B2M, PPIA and GAPDH. To knock down the expression of FOXO3 or NRF2, WI-38 cells were transfected with siRNA oligos (at 10 nM final concentration) for FOXO3 (Life Technologies) or NRF2 on 10-cm petri dish for 36 hrs, and then detached and aliquoted onto 96-well plates. ˜24 hrs later, small molecules were introduced and incubated with cells for 24 hrs. Cells were then processed with the Cells-to-Ct Kit to prepare RT products for qPCR analysis. The knockdown efficiency of FOXO3 or NRF2 was checked at 36 hrs post-transfection and at the end as well.
# NRF2/SKN-1, the oxidative stress and xenobiotic phase 2 detoxification protein, can extend animal lifespan (Sykiotis and Bohmann, 2008; Tullet et al., 2008). Applicants analyzed these small molecules for their ability to increase the expression of NRF2-regulated genes, including HMOX1 (heme oxygenase (decycling) 1; anti-oxidant), NQO1 (NAD(P)H dehydrogenase, quinone 1; phase 2 detoxification enzyme), GCLC (glutamate-cysteine ligase, catalytic) and GSTM1 (glutathionine S transferase) (Hur and Gray, 2011; Suzuki et al., 2013).
# FOXO3 = assay: qPCR analysis of FOXO3-regulated genes; assay type: cell-based, human; settings: Homo sapiens, 24 h, Assay 10(m), at 10 uM, qPCR
# Protocol: as §5, §6
# Many perturbations that increase lifespan and stress resistance in animals do so in a FOXO-dependent fashion (Kenyon, 2010c). Humans have several FOXO genes, but FOXO3, which promotes stress resistance in mammalian cell culture (Kops et al., 2002; Nemoto and Finkel, 2002; Tran et al., 2003), is the one that has been linked to exceptional longevity in humans (Anselmi et al., 2009; Flachsbart et al., 2009; Li et al., 2009; Pawlikowska et al., 2009; Soerensen et al., 2010; Willcox et al., 2008). FOXO1, in contrast, appears to be responsible for some symptoms of diabetes in mouse models (Cheng and White, 2011). For this reason, applicants have focused on analyzing potential ability of our small molecules to activate FOXO3. […] Another 4 molecules (Gr-7A, Gr-7C, O12 and O23) could induce robust expression (greater than 1.5-fold) of at least 2 FOXO3 target genes.
# [5] = test system: PC12 cells expressing poly(Q)103-Htt-EGFP; assay: Poly(Q) toxicity & viability analysis (cellular model of Huntington's disease); assay type: cell-based, rat; settings: 10 uM; YES/NO
# Protocol: Viability assays were performed as described before (Aiken et al., 2004). PC12 cells that stably express the inducible poly(Q)103-Htt-EGFP were grown in culture. […] Cell viability was analyzed 48 hrs later by measuring ATP content with CellTiter-Glo.
# Toxic protein aggregation is a key feature of many age-related neurodegenerative diseases, including Alzheimer's and Huntington's disease (Caughey and Lansbury, 2003; Ross and Poirier, 2004). A number of animal models (Phillips et al., 2009) and cell models (Schlachetzki et al., 2013) have been established to study these diseases. For this purpose, PC12 rat pheochromocytoma cells display neuronal features and produce neurotransmitters and have been used extensively to study neuronal phenotypes, including synaptic transmission and neurological diseases. […] In this model, induced expression of poly(Q)103-Htt-EGFP could lead to the formation of aggregates and exert substantial toxicity in cells.
# [6] = test system: HTB-178 lung tumor cells (EGFR+, PIK3CA+, RB1−, TP53−); assay: Killing effects on HTB-178 tumor cells; assay type: cell-based, human; settings: Assay 1(y), at 10 uM
# [7] = Assay 2(z), 1.0 × 10^9 bacteria/ml, wild type + FuDR (2012 July), read-out: Lifespan assay in liquid
# [8] = Assay 3(aa), 2.5 × 10^9 bacteria/ml, wild type + FuDR, read-out: Lifespan assay in liquid
# [9] = Assay 4(ab), 2.0 × 10^10 bacteria/ml, CF512 worms, no FuDR, read-out: Lifespan assay on plates
# [10] = read-out: Induction of NRF2-regulated genes: HMOX1 normalized fold-change
# [11] = read-out: Induction of FOXO3-regulated genes: TXNIP normalized fold-change
# [12] = read-out: Induction of NRF2-regulated genes: NQO1 normalized fold-change
# [13] = Assay 5(ac), 1.0 × 10^11 bacteria/ml, CF512 worms, no FuDR, read-out: Lifespan assay on plates
# [14] = Assay 6(ad), 2.0 × 10^10 bacteria/ml, CF512 worms, no FuDR, read-out: Lifespan assay on plates
# [15] = Assay 7(ae), 1.0 × 10^11 bacteria/ml, CF512 worms, no FuDR, read-out: Lifespan assay on plates
# T1 sequence (P09874 whole entry): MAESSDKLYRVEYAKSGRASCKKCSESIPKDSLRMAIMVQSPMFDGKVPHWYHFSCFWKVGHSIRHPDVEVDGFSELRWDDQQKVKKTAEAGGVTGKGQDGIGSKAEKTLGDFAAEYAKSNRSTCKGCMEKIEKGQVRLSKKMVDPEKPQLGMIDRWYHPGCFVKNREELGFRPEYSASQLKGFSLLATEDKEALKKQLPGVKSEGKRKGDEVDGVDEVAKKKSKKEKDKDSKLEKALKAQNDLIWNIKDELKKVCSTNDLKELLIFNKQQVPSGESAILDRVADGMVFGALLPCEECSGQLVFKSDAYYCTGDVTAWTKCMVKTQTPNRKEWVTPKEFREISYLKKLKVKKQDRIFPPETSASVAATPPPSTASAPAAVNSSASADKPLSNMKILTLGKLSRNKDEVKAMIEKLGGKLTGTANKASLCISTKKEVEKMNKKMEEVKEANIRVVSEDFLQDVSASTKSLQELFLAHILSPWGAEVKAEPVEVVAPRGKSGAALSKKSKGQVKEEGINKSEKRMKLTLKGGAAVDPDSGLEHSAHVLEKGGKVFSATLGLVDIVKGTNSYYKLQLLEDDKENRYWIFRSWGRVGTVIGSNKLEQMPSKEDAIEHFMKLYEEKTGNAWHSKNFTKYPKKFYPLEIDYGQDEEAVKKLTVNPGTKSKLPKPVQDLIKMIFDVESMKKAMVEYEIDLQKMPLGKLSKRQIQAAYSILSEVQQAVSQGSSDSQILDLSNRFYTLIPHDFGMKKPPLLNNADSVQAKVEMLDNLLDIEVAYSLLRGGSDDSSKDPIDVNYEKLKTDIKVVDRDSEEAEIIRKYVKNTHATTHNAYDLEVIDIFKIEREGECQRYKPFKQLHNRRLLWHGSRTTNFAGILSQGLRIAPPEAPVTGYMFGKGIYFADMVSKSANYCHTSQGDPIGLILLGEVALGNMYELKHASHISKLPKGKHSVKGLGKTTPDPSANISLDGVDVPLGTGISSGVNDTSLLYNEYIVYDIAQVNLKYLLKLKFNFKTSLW
SMILES,Inhibition of PARP1 (human PARP1),Assay 1: H2O2-resistant (WI-38 cells [1]),EC50 (WI-38 cells [1]),"Assay 6: H2O2-resistant, at 10 uM, human dermal fibroblast (HDF) primary cells [2]",Assay 4: H2O2- & Cd-resistant (WI-38 cells [3]),Assay 2: Cadmium-resistant (WI-38 cells [3]),ILS at 66 µM (C. elegans; [7]),ILS at 66 µM (C. elegans; [8]),ILS at 66 µM (C. elegans; [9]),Assay 3: MMS-resistant (WI-38 cells [4]),Assay 5: Triple resistant (WI-38 cells [4]),ILS at 66 µM (C. elegans; [13]),ILS at 66 µM (C. elegans; [14]),ILS at 66 µM (C. elegans; [15]),also measured
CNS(=O)(=O)c1cc(-c2nnc(O)c3ccccc23)ccc1C [Gr-2A],inhibitors of PARP1; also recorded: PARP inhibitors,YES,3.05 µM,YES,YES,YES,22.7%,10.8%,11.4%,YES,YES,–,–,–,–
Oc1nnc(Cc2ccccc2)c2ccccc12 [Gr-2C],inhibitors of PARP1; also recorded: PARP inhibitors,YES,3.12 µM,YES,YES,YES,15.3%,0.1%,7.6%,YES,YES,–,–,–,fold induction at 10 µM (NRF2; [10]): 1.23; fold induction at 10 µM (FOXO3; [11]): 1.2
CN1CCC=C(Cc2nnc(O)c3ccccc23)C1 [Gr-2D],inhibitors of PARP1,–,3.42 µM,–,–,–,–,–,–,–,–,–,–,–,–
Cc1sc2nc(SCC(=O)N3CCOCC3)nc(O)c2c1C [O3],inhibitors of PARP1; also recorded: PARP inhibitors,YES,20 µM,YES,YES,YES,14.1%,14.8%,15.9%,YES,YES,12%,8.7%,1.4%,fold induction at 10 µM (NRF2; [12]): 1.21
O=C1NC(=O)c2cccc3cccc1c23 [O7],confirmed as PARP inhibitors,YES,5.5 µM,YES,YES,YES,19.7%,26%,33.7%,YES,YES,10.2%,5.8%,-10.5%,Assay 20: Huntington's poly-Q toxicity attenuation [5]: YES; Lifespan extension of C. elegans (C. elegans; across independent trials): 10%-34%; Trials with lifespan extension (C. elegans; positive of total trials): 4 of 4
COc1cc(-c2nc(C(N)=O)c3nc(O)n(-c4cccc(C)c4)c3n2)cc(Br)c1O [O9],–,YES,14.2 µM,–,YES,YES,6.6%,1.3%,-0.3%,YES,YES,–,–,–,"fold induction at 10 µM (NRF2; [10]): 1.97; fold induction at 10 µM (NRF2; [12]): 1.32; fold induction at 10 µM (FOXO3; read-out: Induction of FOXO3-regulated genes: SESN1 normalized fold-change): 1.19; fold induction at 10 µM (FOXO3; read-out: Induction of FOXO3-regulated genes: SOD2 normalized fold-change): 1.15; fold induction at 10 µM (FOXO3; [11]): 1.72; Potential killing effects on HTB-178 tumor cells, 1st [6]: YES;; Potential killing effects on HTB-178 tumor cells, 2nd [6]: YES."
CC(Nc1cc(C)ccn1)=C(C#N)C#N [O16],–,–,20 µM,YES,–,–,16.8%,11.4%,19.7%,–,–,9.8%,9.9%,12.1%,"Potential killing effects on HTB-178 tumor cells, 1st [6]: YES;; Potential killing effects on HTB-178 tumor cells, 2nd [6]: YES."
